US11059842B2, “Monosaccharide amine and 3-nitro-2-phenyl-2H-chromene based inhibitors of glucose kinases” (UNIVERSITY OF SOUTH CAROLINA, priority 2019, dated 2021)
Several values for one entry are separate records, joined by “and”; a condition that tells them apart may be missing. Equal entries are not always repeated. Where two headings read alike, the source gives them in different places.

Legend:
[1] = target: T1, TcGlcK (Trypanosoma cruzi (strain CL Brener), UniProt Q4E4E1); assay: TcGlcK Michaelis-Menten kinetics and substrate range; assay type: biochemical; conditions: substrate; triplicate runs
Procedure: (§1) D-Glucose was also tested as a control with alternative substrates. The protein expression work for TcGlcK and HsHxKIV were each made possible through the E. coli strain BL21(DE3) system. Purification of each enzyme was performed through cobalt-NTA chromatography followed by size-exclusion chromatography; assessment of purity was performed by SDS-PAGE. In enzymatic assays, a time-optimum (TOPT) was determined to be 120 seconds for TcGlcK and 600 seconds for HsHxKIV; all assays were run at room temperature. A general reaction scheme included a first reaction in which the monosaccharide, ATP, and Mg^2+ react with the enzyme, e.g., TcGlcK, forming a hexose-phosphate and ADP. In a second reaction, hexose-phosphate with the assistance of glucose-6-phosphate dehydrogenase (G6PDH) and NADP^+ was converted to the lactone form of the hexose-phosphate and NADPH. Fluorescence of NADPH was monitored using a fluorescence microplate reader with […] wavelengths of 340 nm and 485 nm, respectively.
(§2) FIG. 4 and FIG. 5 present typical Michaelis-Menten enzyme kinetic plots for D-glucose. As shown, the NADP^+ to NADPH turnover rate is a function of [D-glucose] & [ATP] for TcGlcK (FIG. 4) and HsHxKIV (FIG. 5) absent inhibition. Michaelis-Menten constant (KM) values, which were used as the set final assay concentrations of substrates D-glucose and ATP for the primary screens, were determined for both TcGlcK and HsHxKIV in triplicate runs. The KM values for TcGlcK with respect to D-glucose and ATP were 0.40 mM and 0.34 mM, respectively. The KM values for HsHxKIV with respect to D-glucose and ATP were 43 mM and 0.20 mM, respectively.
All phosphorylated hexoses were shown getting converted into their corresponding products by G6PDH, in abundant quantities through a 30-second time frame. This permitted the standard TcGlcK […] assay, which was timed for […], to be used as an assay to analyze alternative substrates.

[2] = target: T2, HsHxKIV (Homo sapiens (Human), UniProt P35557); assay: HsHxKIV Michaelis-Menten kinetics; assay type: biochemical; conditions: substrate; triplicate runs
Procedure: as §1
FIG. 4 and FIG. 5 present typical Michaelis-Menten enzyme kinetic plots for D-glucose. […] Michaelis-Menten constant (KM) values, which were used as the set final assay concentrations of substrates D-glucose and ATP for the primary screens, were determined for both TcGlcK and HsHxKIV in triplicate runs. […]

[3] = target: T1, TcGlcK; assay: Primary assay screen of TcGlcK, normalized percent inhibition (Example 2); assay type: biochemical; conditions: triplicate
Procedure: (§3) Primary assay screens of TcGlcK, LbGlcK, and HsHxKIV against the 3-nitro-2-phenyl-2H-chromene-based inhibitors compound nos. 19-22 were carried out. Compound 1, Benzoyl glucosamine (BENZ-GlcN or simply “BENZ”) and carboxybenzyl glucosamine (CBZ-GlcN or simply “CBZ”) were both used as controls due to their known inhibition against TcGlcK. LbGlcK was chosen to be tested against these compounds due to its 44% protein sequence similarity to TcGlcK.
(§4) All screens were done in triplicate and were analyzed using normalized percent inhibition (NPI) calculations. NPI calculations rely on positive and negative assay controls within the screen to account for any fluctuations in the fluorescence measurements.
(§5) The NPI for a compound to be considered a “hit” against TcGlcK required a value exceeding 60.5% inhibition in the primary screen. All four compounds ([…]) qualified as hits based off of this parameter. LbGlcK required compounds to be above 12.6% inhibition in its primary screen; all four compounds were also qualified as hits.

[4] = target: Trypanosoma cruzi glucokinase (TcGlcK) (Trypanosoma cruzi (strain CL Brener), UniProt Q4E4E1); assay type: biochemical; conditions: for TcGlcK Inh20 (%): percentage of inhibition at 20 μM of the compound, N = 1
Procedure: as §1, with “In enzymatic assays, a time-optimum (TOPT) was determined to be 120 seconds for TcGlcK and 600 seconds for HsHxKIV; all assays were run at room temperature.” left out
Michaelis-Menten constant (KM) values, which were used as the set final assay concentrations of substrates D-glucose and ATP for the primary screens, were determined for both TcGlcK and HsHxKIV in triplicate runs. […]
The cutoff percentage was calculated by using normalized percent inhibition that took into consideration the positive and negative controls of the fluorescence readout from a fluorescence microplate reader. In addition, an unconfirmed hit was selected if the activity measurement was three standard deviations away from the mean of the positive controls.

[5] = target: T2, HsHxKIV; assay: Primary assay screen of HsHxKIV, normalized percent inhibition (Example 2); assay type: biochemical; conditions: triplicate
Procedure: as §3, §4, §5

[6] = target: T1, TcGlcK; assay type: biochemical
Procedure: as §1, with “In enzymatic assays, a time-optimum (TOPT) was determined to be 120 seconds for TcGlcK and 600 seconds for HsHxKIV; all assays were run at room temperature.” left out

[7] = test system: glucose-6-phosphate dehydrogenase (G6PDH); assay: G6PDH confirmatory assay (coupling enzyme counter-screen); assay type: biochemical; conditions: 20 μM compound; quadruplicate
Procedure: The 16 compounds showing substantial inhibition against TcGlcK at compound concentrations of 20 μM were then examined in a confirmatory assay in which the amino sugar analogues were at a concentration of 20 μM and were tested against the assay's only coupling enzyme, G6PDH, to verify enzyme activity; the assay was performed in quadruplicate. […] These confirmed hits included representatives from all three monosaccharide scaffolds tested (i.e., D-GlcN, D-ManN, and D-GalN).

[8] = test system: Leishmania braziliensis glucokinase (LbGlcK); assay: Primary assay screen of LbGlcK, normalized percent inhibition (Example 2); assay type: biochemical; conditions: triplicate
Procedure: as §3, §4, §5

[9] = target: T1, TcGlcK; conditions: from D'Antonio, et al (2015); cited from earlier work
[10] = target: Homo sapiens hexokinase IV (HsHxKIV) (Homo sapiens (Human), UniProt P35557); assay: HsHxKIV enzyme-inhibition screening assay (Example 1); assay type: biochemical; conditions: 20 μM compound; N = 1
Procedure: as §1, §2

[11] = test system: T. cruzi (Tulahuen strain) infective form (trypomastigote and amastigote life stages) co-cultured in NIH-3T3 fibroblasts; assay: T. cruzi infective form growth inhibition in NIH-3T3 fibroblasts; assay type: cell-based, Trypanosoma cruzi; conditions: Tulahuen strain infective form in NIH-3T3 fibroblasts; N = 3 (Amphotericin B control: 6 replicates)
Procedure: The curve and the IC50 were calculated from measurements determined in triplicate and expressed as percent growth inhibition of the T. cruzi parasite infection of mammalian cells.
Compounds were further screened against the T. cruzi (Tulahuen strain) infective form (trypomastigote and amastigote life stages) co-cultured in NIH-3T3 fibroblasts to establish IC50 values. Assays were performed in triplicate.
The single dose in vitro study included administration of the compounds in 80 μM inhibitor concentrations (N=3). Amphotericin B was used as a control.

[12] = test system: T. brucei; assay: T. brucei in vitro screen; assay type: cell-based; conditions: Trypanosoma brucei; average; concentrations up to 10 μM, N=3
Procedure: Compounds 19-31 were screened against T. brucei. The single dose in vitro study included administration of the compounds in increasing concentrations up to 10 μM (N=3 for each compound concentration value). Media and T. bricei+0.5% SDS were used as control.

[13] = test system: T. cruzi (Tulahuen strain) infective form (trypomastigote and amastigote life stages) co-cultured in NIH-3T3 fibroblasts; conditions: literature / previously measured values; infective form in NIH-3T3 fibroblasts; cited from earlier work

T1 sequence (Q4E4E1 1-376): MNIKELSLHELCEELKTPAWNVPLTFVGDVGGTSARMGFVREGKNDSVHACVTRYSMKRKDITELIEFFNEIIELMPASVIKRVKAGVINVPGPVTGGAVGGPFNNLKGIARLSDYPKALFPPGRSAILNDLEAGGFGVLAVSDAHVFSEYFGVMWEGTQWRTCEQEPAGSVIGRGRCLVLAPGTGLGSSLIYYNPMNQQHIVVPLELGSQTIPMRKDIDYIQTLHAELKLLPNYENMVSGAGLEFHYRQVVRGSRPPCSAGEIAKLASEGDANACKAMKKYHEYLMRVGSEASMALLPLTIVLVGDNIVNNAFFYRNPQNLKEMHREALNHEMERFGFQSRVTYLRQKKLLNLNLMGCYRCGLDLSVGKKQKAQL
Chain of Trypanosoma cruzi glucokinase (TcGlcK) (Q4E4E1 1-376): as above
T2 sequence (P35557 whole entry): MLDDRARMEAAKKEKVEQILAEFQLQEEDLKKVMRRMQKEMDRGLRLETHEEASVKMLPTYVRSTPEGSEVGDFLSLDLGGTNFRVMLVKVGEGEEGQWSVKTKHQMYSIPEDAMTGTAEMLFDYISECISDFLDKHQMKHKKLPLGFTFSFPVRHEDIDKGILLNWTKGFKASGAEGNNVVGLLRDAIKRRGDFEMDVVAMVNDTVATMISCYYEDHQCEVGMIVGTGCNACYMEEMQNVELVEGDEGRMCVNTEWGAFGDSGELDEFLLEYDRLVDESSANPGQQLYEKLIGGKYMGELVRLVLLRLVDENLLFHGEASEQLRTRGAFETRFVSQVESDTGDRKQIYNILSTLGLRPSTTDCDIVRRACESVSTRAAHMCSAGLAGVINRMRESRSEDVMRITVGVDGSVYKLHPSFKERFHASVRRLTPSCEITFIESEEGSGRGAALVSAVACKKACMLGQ
Chain of Homo sapiens hexokinase IV (HsHxKIV) (P35557 whole entry): as above

Q: What does the source list for Nc1ncnc2c1ncn2[C@@H]1O[C@H](COP(=O)(O)OP(=O)(O)OP(=O)(O)O)[C@@H](O)[C@H]1O [ATP]?
A: Km [1]: 340 µM; Km [2]: 200 µM

Q: With O=C(NC1C(O)OC(CO)C(O)C1O)OCc1ccccc1 (stereo not shown) [CBZ-GlcN, carboxybenzyl glucosamine, reference compound] as the compound, how does the “NPI (%) TcGlcK” value [3] read?
A: 100%

Q: What about the “TcGlcK Inh20 (%)” value [4] of the same compound?
A: 92%

Q: And the “NPI (%) HsHxKIV” value [5]?
A: 15.0%

Q: With O=C(N[C@H]1C(O)O[C@H](CO)[C@@H](O)[C@@H]1O)c1ccccc1 (stereo partly shown) [Compound 1, Benzoyl glucosamine] as the compound, how does the “NPI (%) TcGlcK” value [3] read?
A: 100%

Q: And the “Ki stronger than compound 5 by magnitude” value ([6]; relative to compound 5)?
A: 4.3 fold

Q: And the “G6PDH Inh20 (%)” value [7]?
A: 0.5 ± 1.0%

Q: And the “NPI (%) LbGlcK” value [8]?
A: 27.2%

Q: What about the “TcGlcK Inh20:HsHxKIV Inh20 ratio” value ([4]; higher values indicate more selective towards TcGlcK) of the same compound?
A: 1.65

Q: What about the “TcGlcK Inh20 (%)” value [4] of the same compound?
A: 65% and 64.7%

Q: And the Ki [9]?
A: 32 µM

Q: What about the “HsHxKIV Inh20(%)” value [10] of the same compound?
A: 39%

Q: What about the “NPI (%) HsHxKIV” value [5] of the same compound?
A: 9.30%

Q: With O=C(N[C@H]1C(O)O[C@H](CO)[C@@H](O)[C@@H]1O)c1cc2ccccc2o1 (stereo partly shown) [Compound 5] as the compound, how does the “mode of TcGlcK inhibition” value [6] read?
A: competitive inhibition

Q: And the Ki ([6]; N = 3)?
A: 139 ± 35 µM

Q: What about the “G6PDH Inh20 (%)” value [7] of the same compound?
A: 0.0 ± 0.0%

Q: What about the IC50 [11] of the same compound?
A: 27.2 µM

Q: What about the “TcGlcK Inh20 (%)” value [4] of the same compound?
A: 31% and 31.2%

Q: And the “HsHxKIV Inh20(%)” value [10]?
A: 25%

Q: For O=[N+]([O-])C1=Cc2cc(Br)cc(Br)c2O[C@H]1c1c(Cl)cccc1Cl [Compound 19], which “NPI (%) TcGlcK” value [3] is on record?
A: 62.3%

Q: What about the IC50 [12] of the same compound?
A: 0.902 µM

Q: And the “NPI (%) HsHxKIV” value [5]?
A: 82.1%

Q: For O=[N+]([O-])C1=Cc2cc(Br)ccc2O[C@H]1c1ccccc1Cl [Compound 20], which “NPI (%) TcGlcK” value [3] is on record?
A: 89.5%

Q: And the IC50 [12]?
A: 0.862 µM

Q: And the “NPI (%) HsHxKIV” value [5]?
A: 64.7%

Q: For O=[N+]([O-])C1=Cc2ccccc2O[C@H]1c1ccccc1Cl [Compound 21], which “NPI (%) TcGlcK” value [3] is on record?
A: 54.7%

Q: What about the “NPI (%) HsHxKIV” value [5] of the same compound?
A: 51.8%

Q: Which “NPI (%) TcGlcK” value [3] does the source give for O=[N+]([O-])C1=Cc2ccccc2O[C@H]1c1c(Cl)cccc1Cl [Compound 22] here?
A: 69.5%

Q: And the “NPI (%) HsHxKIV” value [5]?
A: 66.0%

Q: With O=C(Cn1ccnc1[N+](=O)[O-])NCc1ccccc1 [benznidazole] as the compound, how does the IC50 [13] read?
A: 1.12 ± 0.01 µM
